Measurements as given in US5484940A, “Substituted 3-indolyl-5-pyrazolone compounds” (priority 1994, dated 1996).

Key:
293 751 SWE cells = experiment: Cytotoxicity (MTT) in 293 751 SWE cells; type: cell-based, human; conditions: concentration not given
Experimental: (§1) This screening assay employed cells (K293=human kidney cell line) which were stably transfected with the gene for amyloid precursor protein 751 (APP751) containing the double mutation Lys651 Met652 to Asn651 Leu652 (APP751 numbering) in the manner described in International Patent Application Publication No. 94/10569^1 and Citron et al.^16. This mutation is commonly called the Swedish mutation and the cells, designated as "293 751 SWE", were plated in Coming 96-well plates at 1.5-2.5×10^4 cells per well in Dulbecco's minimal essential media plus 10% fetal bovine serum. Cell number is important in order to achieve β-amyloid ELISA results within the linear range of the assay (~0.2 to 2.5 ng per mL).
Cytotoxic effects of the compounds were measured by a modification of the method of Hansen, et al.^17. To the cells remaining in the tissue culture plate was added 25 μL of a 3,(4,5-dimethylthiazol-2-yl)2,5-diphenyltetrazolium bromide (MTT) stock solution (5 mg/mL) to a final concentration of 1 mg/mL. Cells were incubated at 37° C. for one hour, and cellular activity was stopped by the addition of an equal volume of MTT lysis buffer (20% w/v sodium dodecylsulfate in 50% dimethylformamide, pH 4.7). Complete extraction was achieved by overnight shaking at room temperature. The difference in the OD562nm and the OD650nm was measured in a Molecular Device's UVmax microplate reader as an indicator of the cellular viability.

[1] = system: β-amyloid peptide production; experiment: Cellular screen for inhibitors of β-amyloid production (ELISA, 293 751 SWE cells); type: cell-based, human; conditions: 2 h pretreatment + 2 h, normalized for cytotoxicity (MTT), concentration not given
Experimental: as §1
Following overnight incubation at 37° C. in an incubator equilibrated with 10% carbon dioxide, media were removed and replaced with 200 μL of a substituted 3-indolyl-5-pyrazolone (drug) containing media per well for a two hour pretreatment period and cells were incubated as above.
At the end of the pretreatment period, the media were again removed and replaced with fresh drag containing media as above and cells were incubated for an additional two hours. After treatment, plates were centrifuged in a Beckman GPR at 1200 rpm for five minutes at room temperature to pellet cellular debris from the conditioned media. From each well, 100 μL of conditioned media or appropriate dilutions thereof were transferred into an ELISA plate precoated with antibody 266 against amino acids 13-28 of β-amyloid peptide as described in International Patent Application Publication No. 94/10569^1 and stored at 4° C. overnight. An ELISA assay employing labelled antibody 6C6 against amino acids 1-16 of β-amyloid peptide was run the next day to measure the amount of β-amyloid peptide produced.
The results of the β-amyloid peptide ELISA were fit to a standard curve and expressed as ng/mL β-amyloid peptide. […] All results are the mean and standard deviation of at least six replicate assays.

Row | SMILES | cytotoxic effect on the 293 751 SWE cells (293 751 SWE cells) | reduction of β-amyloid peptide production as compared to control [1]
1 | COc1ccc2c(c1)c(CC1=NN(C3CCCC3)C(=O)C1)c(C)n2C(=O)c1ccc(Cl)cc1 [Example 11, 3-[1-(4-chlorobenzoyl)-5-methoxy-2-methyl-3-indolylmethyl]-1-cyclopentyl-5-pyrazolone] | did not have a significant cytotoxic effect | at least 20%
2 | COc1ccc2c(c1)c(CC1=NN(C3CCCCCC3)C(=O)C1)c(C)n2C(=O)c1ccc(Cl)cc1 [Example 12, 3-[1-(4-chlorobenzoyl)-5-methoxy-2-methyl-3-indolylmethyl]-1-cycloheptyl-5-pyrazolone] | did not have a significant cytotoxic effect | at least 20%
3 | COc1ccc2c(c1)c(CC1=NN(Cc3ccccc3)C(=O)C1)c(C)n2C(=O)c1ccc(Cl)cc1 [Example 13, 3-[1-(4-chlorobenzoyl)-5-methoxy-2-methyl-3-indolylmethyl]-1-benzyl-5-pyrazolone] | did not have a significant cytotoxic effect | at least 20%
4 | CCCC(CCC)N1N=C(Cc2c(C)n(C(=O)c3ccc(Cl)cc3)c3ccc(OC)cc23)CC1=O [Example 16, 3-[1-(4-chlorobenzoyl)-5-methoxy-2-methyl-3-indolylmethyl]-1-(4-heptyl)-5-pyrazolone] | did not have a significant cytotoxic effect | at least 20%
5 | COc1ccc2[nH]c(C)c(CC3=NN(C4CCCCC4)C(=O)C3)c2c1 [Example 17, 3-(5-methoxy-2-methyl-3-indolylmethyl)-1-cyclohexyl-5-pyrazolone] | did not have a significant cytotoxic effect | at least 20%
6 | COc1ccc2c(c1)c(CC1=NN(C3CCCCC3)C(=O)C1)c(C)n2Cc1ccccc1 [Example 20, 3-(1-benzyl-5-methoxy-2-methyl-3-indolylmethyl)-1-cyclohexyl-5-pyrazolone] | did not have a significant cytotoxic effect | at least 20%
7 | COc1ccc2c(c1)c(CCC1=NN(C3CCCCC3)C(=O)C1)c(C)n2C(=O)c1ccc(Cl)cc1 [Example 21, 3-[1-(4-chlorobenzoyl)-5-methoxy-2-methyl-3-indolylethyl]-1-cyclohexyl-5-pyrazolone] | did not have a significant cytotoxic effect | at least 20%
8 | Cc1c(CC2=NN(C3CCCCC3)C(=O)C2)c2ccccc2n1C(=O)c1ccc(Cl)cc1 [Example 22, 3-[1-(4-chlorobenzoyl)-2-methyl-3-indolylmethyl]-1-cyclohexyl-5-pyrazolone] | did not have a significant cytotoxic effect | at least 20%
9 | COc1ccc2c(c1)c(CC1=NN(c3cccc(Br)c3)C(=O)C1)c(C)n2C(=O)c1ccc(Cl)cc1 [Example 28, 3-[1-(4-chlorobenzoyl)-5-methoxy-2-methyl-3-indolylmethyl]-1-(3-bromophenyl)-5-pyrazolone] | – | < 20%
10 | COc1ccc2c(c1)c(CC1=NN(c3cc(C)cc(C)c3)C(=O)C1)c(C)n2C(=O)c1ccc(Cl)cc1 [Example 29, 3-[1-(4-chlorobenzoyl)-5-methoxy-2-methyl-3-indolylmethyl]-1-(3,5-dimethylphenyl)-5-pyrazolone] | did not have a significant cytotoxic effect | at least 20%
11 | COc1ccc2c(c1)c(CC1=NN(c3cccc(NC(C)=O)c3)C(=O)C1)c(C)n2C(=O)c1ccc(Cl)cc1 [Example 41, 3-[1-(4-chlorobenzoyl)-5-methoxy-2-methyl-3-indolylmethyl]-1-(3-acetamidophenyl)-5-pyrazolone] | – | < 20%
